# How the values were obtained:
# Assay in all cases: Test G preemergence/postemergence greenhouse plant response rating 0 to 100
# [1] = test system: alfalfa; format: in vivo, Medicago ativa; conditions: 0 to 100 scale
# Outline: (§1)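 Pre- and postemergence treatments used compound in non-phytotoxic solvent on potted greenhouse plants grown from seed, rhizome or plant part. Postemergence plants were at the 2–4 leaf stage; damage was assessed by eye versus untreated pots after 13–21 days.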
# [2] = test system: annual bluegrass; format: in vivo, Poa annua; conditions: 0 to 100 scale
# Outline: as §1
# [3] = test system: bermudagrass; format: in vivo, Cynodon dactylon; conditions: 0 to 100 scale
# Outline: as §1
# [4] = test system: broadleaf signalgrass; format: in vivo, Brachiaria plantaginea; conditions: 0 to 100 scale
# Outline: as §1
# [5] = test system: common purslane; format: in vivo, Portulaca oleracea; conditions: 0 to 100 scale
# Outline: as §1
# [6] = test system: common ragweed; format: in vivo, Ambrosia elatior; conditions: 0 to 100 scale
# Outline: as §1
# [7] = test system: goosegrass; format: in vivo, Eleusine indica; conditions: 0 to 100 scale
# Outline: as §1
# [8] = test system: guineagrass; format: in vivo, Panicum maximum; conditions: 0 to 100 scale
# Outline: as §1
# [9] = test system: itchgrass; format: in vivo, Rottboellia exaltata; conditions: 0 to 100 scale
# Outline: as §1
# [10] = test system: johnsongrass; format: in vivo, Sorghum halepense; conditions: 0 to 100 scale
# Outline: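 Scoring: visual injury at 13 to 21 days post-application, compared with untreated controls. Planting: one species per pot in greenhouse medium. Dosing: compound in non-phytotoxic solvent, within one day of sowing for preemergence or at 2–4 leaves for postemergence.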
# [11] = test system: large crabgrass; format: in vivo, Digitaria sanguinalis; conditions: 0 to 100 scale
# Outline: as §1
# [12] = test system: peanut; format: in vivo, Arachis hypoagaea; conditions: 0 to 100 scale
# Outline: as §1
# [13] = test system: pitted morningglory; format: in vivo, Ipomoea lacunosa; conditions: 0 to 100 scale
# Outline: as §1
# [14] = test system: sandbur; format: in vivo, Cenchrus echinatus; conditions: 0 to 100 scale
# Outline: as §1
# [15] = test system: smooth crabgrass; format: in vivo, Digitaria ischaemum; conditions: 0 to 100 scale
# Outline: as §1
# [16] = test system: yellow nutsedge; format: in vivo, Cyperus esculentus; conditions: Rate 125 g/ha, 0 to 100 scale
# Outline: as §1
structure (smiles),measurement,setting,value
CC(C)N1C(=O)COc2cc(F)c(-c3nn4c(c3Cl)CCCC4)cc21 [Compound 31],"Plant response rating, Alfalfa Var.","[1]; POSTEMERGENCE, Rate 125 g/ha",0
same,"Plant response rating, Alfalfa Var.","[1]; POSTEMERGENCE, Rate 250 g/ha",10
same,"Plant response rating, Alfalfa Var.","[1]; PREEMERGENCE, Rate 125 g/ha",0
same,"Plant response rating, Alfalfa Var.","[1]; PREEMERGENCE, Rate 250 g/ha",30
same,"Plant response rating, Ann Bluegrass","[2]; POSTEMERGENCE, Rate 125 g/ha",0
same,"Plant response rating, Ann Bluegrass","[2]; POSTEMERGENCE, Rate 250 g/ha",0
same,"Plant response rating, Ann Bluegrass","[2]; PREEMERGENCE, Rate 125 g/ha",0
same,"Plant response rating, Ann Bluegrass","[2]; PREEMERGENCE, Rate 250 g/ha",0
same,"Plant response rating, Bermudagrass","[3]; POSTEMERGENCE, Rate 125 g/ha",0
same,"Plant response rating, Bermudagrass","[3]; POSTEMERGENCE, Rate 250 g/ha",0
same,"Plant response rating, Bermudagrass","[3]; PREEMERGENCE, Rate 125 g/ha",0
same,"Plant response rating, Bermudagrass","[3]; PREEMERGENCE, Rate 250 g/ha",0
same,"Plant response rating, Brdlf Sgnlgrass","[4]; POSTEMERGENCE, Rate 125 g/ha",0
same,"Plant response rating, Brdlf Sgnlgrass","[4]; POSTEMERGENCE, Rate 250 g/ha",0
same,"Plant response rating, Brdlf Sgnlgrass","[4]; PREEMERGENCE, Rate 125 g/ha",0
same,"Plant response rating, Brdlf Sgnlgrass","[4]; PREEMERGENCE, Rate 250 g/ha",0
same,"Plant response rating, Cmn Purslane","[5]; POSTEMERGENCE, Rate 125 g/ha",100
same,"Plant response rating, Cmn Purslane","[5]; POSTEMERGENCE, Rate 250 g/ha",80
same,"Plant response rating, Cmn Purslane","[5]; PREEMERGENCE, Rate 125 g/ha",0
same,"Plant response rating, Cmn Purslane","[5]; PREEMERGENCE, Rate 250 g/ha",100
same,"Plant response rating, Cmn Ragweed","[6]; POSTEMERGENCE, Rate 125 g/ha",100
same,"Plant response rating, Cmn Ragweed","[6]; POSTEMERGENCE, Rate 250 g/ha",100
same,"Plant response rating, Cmn Ragweed","[6]; PREEMERGENCE, Rate 125 g/ha",0
same,"Plant response rating, Cmn Ragweed","[6]; PREEMERGENCE, Rate 250 g/ha",70
same,"Plant response rating, Goosegrass","[7]; POSTEMERGENCE, Rate 125 g/ha",0
same,"Plant response rating, Goosegrass","[7]; POSTEMERGENCE, Rate 250 g/ha",0
same,"Plant response rating, Goosegrass","[7]; PREEMERGENCE, Rate 125 g/ha",0
same,"Plant response rating, Goosegrass","[7]; PREEMERGENCE, Rate 250 g/ha",0
same,"Plant response rating, Guineagrass","[8]; POSTEMERGENCE, Rate 125 g/ha",0
same,"Plant response rating, Guineagrass","[8]; POSTEMERGENCE, Rate 250 g/ha",0
same,"Plant response rating, Guineagrass","[8]; PREEMERGENCE, Rate 125 g/ha",0
same,"Plant response rating, Guineagrass","[8]; PREEMERGENCE, Rate 250 g/ha",100
same,"Plant response rating, Itchgrass","[9]; POSTEMERGENCE, Rate 125 g/ha",0
same,"Plant response rating, Itchgrass","[9]; POSTEMERGENCE, Rate 250 g/ha",20
same,"Plant response rating, Itchgrass","[9]; PREEMERGENCE, Rate 125 g/ha",0
same,"Plant response rating, Itchgrass","[9]; PREEMERGENCE, Rate 250 g/ha",70
same,"Plant response rating, Johnsongrass","[10]; POSTEMERGENCE, Rate 125 g/ha",0
same,"Plant response rating, Johnsongrass","[10]; POSTEMERGENCE, Rate 250 g/ha",0
same,"Plant response rating, Johnsongrass","[10]; PREEMERGENCE, Rate 125 g/ha",0
same,"Plant response rating, Johnsongrass","[10]; PREEMERGENCE, Rate 250 g/ha",0
same,"Plant response rating, Large Crabgrass","[11]; POSTEMERGENCE, Rate 125 g/ha",0
same,"Plant response rating, Large Crabgrass","[11]; POSTEMERGENCE, Rate 250 g/ha",0
same,"Plant response rating, Large Crabgrass","[11]; PREEMERGENCE, Rate 125 g/ha",0
same,"Plant response rating, Large Crabgrass","[11]; PREEMERGENCE, Rate 250 g/ha",0
same,"Plant response rating, Peanuts","[12]; POSTEMERGENCE, Rate 125 g/ha",0
same,"Plant response rating, Peanuts","[12]; POSTEMERGENCE, Rate 250 g/ha",0
same,"Plant response rating, Peanuts","[12]; PREEMERGENCE, Rate 125 g/ha",0
same,"Plant response rating, Peanuts","[12]; PREEMERGENCE, Rate 250 g/ha",0
same,"Plant response rating, Pit Morninglory","[13]; POSTEMERGENCE, Rate 125 g/ha",50
same,"Plant response rating, Pit Morninglory","[13]; POSTEMERGENCE, Rate 250 g/ha",50
same,"Plant response rating, Pit Morninglory","[13]; PREEMERGENCE, Rate 125 g/ha",0
same,"Plant response rating, Pit Morninglory","[13]; PREEMERGENCE, Rate 250 g/ha",0
same,"Plant response rating, S. Sandbur","[14]; POSTEMERGENCE, Rate 125 g/ha",0
same,"Plant response rating, S. Sandbur","[14]; POSTEMERGENCE, Rate 250 g/ha",0
same,"Plant response rating, S. Sandbur","[14]; PREEMERGENCE, Rate 125 g/ha",0
same,"Plant response rating, S. Sandbur","[14]; PREEMERGENCE, Rate 250 g/ha",0
same,"Plant response rating, Smooth Crabgras","[15]; POSTEMERGENCE, Rate 125 g/ha",0
same,"Plant response rating, Smooth Crabgras","[15]; POSTEMERGENCE, Rate 250 g/ha",0
same,"Plant response rating, Smooth Crabgras","[15]; PREEMERGENCE, Rate 125 g/ha",0
same,"Plant response rating, Smooth Crabgras","[15]; PREEMERGENCE, Rate 250 g/ha",0
same,"Plant response rating, Yellow Nutsedge",[16]; POSTEMERGENCE,0
same,"Plant response rating, Yellow Nutsedge",[16]; PREEMERGENCE,0

# Reference: patent US6358885B1, “Substituted phenylheterocyclic herbicides” (Mississippi State University, priority 1992, dated 2002)
